The test relates to L1210 leukemia ip in BDF1 mice, survival T/C. As to the kind of experiment: NCI In Vivo Anticancer Drug Screen. Data for tumor model L1210 Leukemia (intraperitoneal) in B6D2F1 (BDF1) mice. The conditions noted are these: endpoint: mean survival time, higher = longer survival. The gist of the method: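 Survival endpoint. Drug-treated group vs vehicle group, expressed as T divided by C. Tumor passaged by transplantation.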

[1] abbreviates: dose: 100.0 mg/kg/injection, schedule: Q01DX009 (ip), vehicle: Klucel (hydroxypropylcellulose) (HPC).
The mark [2] stands for this setting: dose: 200.0 mg/kg/injection, schedule: Q01DX009 (ip), vehicle: Klucel (hydroxypropylcellulose) (HPC).
Setting [3] is: dose: 400.0 mg/kg/injection, schedule: Q01DX009 (ip), vehicle: Klucel (hydroxypropylcellulose) (HPC).
[4] abbreviates: dose: 100.0 mg/kg/injection, schedule: Q01DX001 (ip), vehicle: saline.
Where [5] appears, read: dose: 200.0 mg/kg/injection, schedule: Q01DX001 (ip), vehicle: saline.
Where [6] appears, read: dose: 100.0 mg/kg/injection, schedule: Q04DX003 (ip), vehicle: saline.
Setting [7] is: dose: 100.0 mg/kg/injection, schedule: Q04DX003 (ip), vehicle: Klucel (hydroxypropylcellulose) (HPC).
Where [8] appears, read: dose: 200.0 mg/kg/injection, schedule: Q04DX003 (ip), vehicle: Klucel (hydroxypropylcellulose) (HPC).
Setting [9] is: dose: 400.0 mg/kg/injection, schedule: Q04DX003 (ip), vehicle: Klucel (hydroxypropylcellulose) (HPC).

Where “and” joins values, the source holds several entries; their conditions need not be identical. Equal entries are not always repeated. Inconclusive results and toxic doses are left out.

On to `O=C(OC(C(=O)O)C(OC(=O)c1ccccc1)C(=O)O)c1ccccc1` (stereo unspecified) (tested in a mixture with another compound), for which the T/C (dose: 15.0 mg/kg/injection, schedule: Q01DX001 (ip), vehicle: carboxymethylcellulose (CMC)) is 102 % of control; the T/C (dose: 100.0 mg/kg/injection, schedule: Q01DX001 (ip), vehicle: other) was 109 % of control; the T/C (dose: 200.0 mg/kg/injection, schedule: Q01DX001 (ip), vehicle: other) is 102 % of control; the T/C (dose: 400.0 mg/kg/injection, schedule: Q01DX001 (ip), vehicle: other) is 109 % of control.

Take `COc1cc(C=O)ccc1OC(=O)Nc1cccc(Cl)c1C`: the T/C is 97 % of control under setting [1], 97 % of control under setting [2] and 103 % of control under setting [3].

Turning to `O=[N+]([O-])c1ccccc1N=Nc1c(O)[nH]c2c(Cl)cccc12`, the T/C under setting [4] was 97 % of control; the T/C under setting [5] is 100 % of control; the T/C (dose: 400.0 mg/kg/injection, schedule: Q01DX001 (ip), vehicle: saline) is 97 % of control.

`CCC(=O)NC1=C(N2CC2C)C(=O)C(NC(=O)CC)=C(N2CC2C)C1=O` (stereo unspecified): the T/C reads like this: (dose: 3.12 mg/kg/injection, schedule: Q01DX009 (ip), vehicle: saline) 111 % of control; (dose: 6.25 mg/kg/injection, schedule: Q01DX009 (ip), vehicle: saline) 124 % of control; (dose: 12.5 mg/kg/injection, schedule: Q01DX009 (ip), vehicle: saline) 153 % of control; (dose: 25.0 mg/kg/injection, schedule: Q01DX009 (ip), vehicle: saline) 177 % of control; (dose: 35.0 mg/kg/injection, schedule: Q01DX009 (ip), vehicle: Klucel (hydroxypropylcellulose) (HPC)) 103 % of control.

For `Cc1cc(C)c(C(=O)N/N=C/c2ccc(N(CCCl)CCCl)cc2)c(=O)[nH]1`, the T/C runs as follows: (dose: 50.0 mg/kg/injection, schedule: Q01DX001 (ip), vehicle: carboxymethylcellulose (CMC)) 97 % of control; (dose: 100.0 mg/kg/injection, schedule: Q01DX001 (ip), vehicle: carboxymethylcellulose (CMC)) 100 % of control; (dose: 200.0 mg/kg/injection, schedule: Q01DX001 (ip), vehicle: carboxymethylcellulose (CMC)) 103 % of control; (dose: 400.0 mg/kg/injection, schedule: Q01DX001 (ip), vehicle: carboxymethylcellulose (CMC)) 92 % of control.

For `CCN(CC)CCCC(C)n1nnc2cc(Cl)ccc21` (stereo unspecified), the T/C is, setting by setting: under setting [4], 97 % of control; under setting [5], 97 % of control.

For `CC(C)(C)/C(=N\[N+](C)(C)C)c1ccccc1`, the T/C under setting [6] was 98 % of control.

`O=C(Nc1ccc(C(Cl)(Cl)Cl)cc1)Nc1cc(Cl)ccc1Cl`: the T/C was 109 % of control (dose: 25.0 mg/kg/injection, schedule: Q01DX009 (ip), vehicle: other); 93 % of control (dose: 50.0 mg/kg/injection, schedule: Q01DX009 (ip), vehicle: other); 93 % of control under setting [1]; 95 % of control (dose: 100.0 mg/kg/injection, schedule: Q01DX009 (ip), vehicle: other).

Take `CCC(=C\c1sc2ccc3ccccc3c2[n+]1CC)/C=C1/Sc2ccc3ccccc3c2N1CC`: the T/C runs as follows: (dose: 2.0 mg/kg/injection, schedule: Q01DX001 (ip), vehicle: other) 117 % of control; (dose: 4.0 mg/kg/injection, schedule: Q01DX001 (ip), vehicle: other) 95 % of control; (dose: 8.0 mg/kg/injection, schedule: Q01DX001 (ip), vehicle: other) 88 % of control.

Regarding `Cc1c(CCNC=O)cc(C)c2c3c(oc12)CCCC3`, the T/C (dose: 50.0 mg/kg/injection, schedule: Q01DX001 (ip), vehicle: saline) was 101 % of control; the T/C under setting [4] is 104 % of control; the T/C under setting [5] is 104 % of control.

`NC(=O)c1cc([N+](=O)[O-])ccc1Cl`: the T/C runs as follows: (dose: 100.0 mg/kg/injection, schedule: Q04DX003 (ip), vehicle: saline with Tween-80) 97 % of control; (dose: 200.0 mg/kg/injection, schedule: Q04DX003 (ip), vehicle: saline with Tween-80) 97 % of control; (dose: 400.0 mg/kg/injection, schedule: Q04DX003 (ip), vehicle: saline with Tween-80) 101 % of control.

Take `O=S1(=O)CCCC1`: the T/C was 104 % of control (dose: 100.0 mg/kg/injection, schedule: Q01DX009 (ip), vehicle: saline); 104 % of control under setting [6]; 98 % of control (dose: 200.0 mg/kg/injection, schedule: Q01DX009 (ip), vehicle: saline); 100 % of control (dose: 200.0 mg/kg/injection, schedule: Q04DX003 (ip), vehicle: saline); 96 % of control (dose: 400.0 mg/kg/injection, schedule: Q01DX009 (ip), vehicle: saline); 98 % of control (dose: 400.0 mg/kg/injection, schedule: Q04DX003 (ip), vehicle: saline).

`c1cc2cc3c(cc2c2c1CC1c4cc5c(cc4CCN1C2)OCO5)OCO3` (stereo unspecified): the T/C by setting is: under setting [1], 103 % of control; under setting [7], 101 % of control; under setting [2], 97 % of control; under setting [8], 97 % of control; under setting [3], 97 % of control; under setting [9], 94 % of control.

For `C1CCC2C(C1)CCC1C3CCCC3OCN21` (stereo unspecified), the T/C (dose: 100.0 mg/kg/injection, schedule: Q04DX002 (ip), vehicle: saline with Tween-80) was 96 % of control; the T/C (dose: 200.0 mg/kg/injection, schedule: Q04DX002 (ip), vehicle: saline with Tween-80) is 96 % of control; the T/C (dose: 400.0 mg/kg/injection, schedule: Q04DX002 (ip), vehicle: saline with Tween-80) was 93 % of control.

Regarding `N#Cc1c(NN)n(C2OC(CO)C(O)C2O)c2ncnc(N)c12` (stereo unspecified), the T/C reads like this: (dose: 25.0 mg/kg/injection, schedule: Q01DX005 (ip), vehicle: saline) 107 % of control; (dose: 50.0 mg/kg/injection, schedule: Q01DX005 (ip), vehicle: saline) 90 % of control; (dose: 100.0 mg/kg/injection, schedule: Q01DX005 (ip), vehicle: saline) 105 % of control; (dose: 200.0 mg/kg/injection, schedule: Q01DX005 (ip), vehicle: saline) 96 % of control.

Turning to `CC(C)(C)N=NC1(S(=O)(=O)c2ccccc2)CCCCC1`, the T/C was 98 % of control under setting [7], 93 % of control under setting [8] and 91 % of control under setting [9].

Turning to `O=C(O)CSCc1ccccc1`, the T/C (dose: 25.0 mg/kg/injection, schedule: Q01DX009 (ip), vehicle: saline with Tween-80) is 102 % of control; the T/C (dose: 50.0 mg/kg/injection, schedule: Q01DX009 (ip), vehicle: saline with Tween-80) was 95 % of control; the T/C (dose: 100.0 mg/kg/injection, schedule: Q01DX009 (ip), vehicle: saline with Tween-80) is 100 % of control and 102 % of control; the T/C under setting [7] is 94 % of control; the T/C under setting [8] is 100 % of control; the T/C under setting [9] is 102 % of control.

`CC(=O)/C=C/c1ccc([N+](=O)[O-])cc1`: the T/C reads like this: (dose: 100.0 mg/kg/injection, schedule: Q04DX003 (ip), vehicle: saline sonified) 95 % of control; (dose: 200.0 mg/kg/injection, schedule: Q04DX003 (ip), vehicle: saline sonified) 89 % of control; (dose: 400.0 mg/kg/injection, schedule: Q04DX003 (ip), vehicle: saline sonified) 92 % of control.

For the origin of these results see PubChem BioAssay AID248 (DTP/NCI, 2004).
